Several values for one entry are separate records, joined by “and”; a condition that tells them apart may be missing. Identical values can stand only once.
Conditions: Fluid (supercritical or subcritical phases), Coaxial cylinder method

FCC(F)(F)F [1,1,1,2-tetrafluoroethane]
Conditions | thermal conductivity
299.29 K, 170 kPa | 0.01287 W/m/K
299.63 K, 170 kPa | 0.01279 W/m/K
318.97 K, 740 kPa | 0.01489 W/m/K and 0.01486 W/m/K
319.14 K, 160 kPa | 0.0146 W/m/K
345.58 K, 180 kPa | 0.01711 W/m/K
346.36 K, 180 kPa | 0.01739 W/m/K
348.54 K, 180 kPa | 0.01732 W/m/K
351.84 K, 640 kPa | 0.01763 W/m/K
363.88 K, 180 kPa | 0.01891 W/m/K
365 K, 180 kPa | 0.01891 W/m/K
365.41 K, 180 kPa | 0.01893 W/m/K
365.69 K, 180 kPa | 0.01893 W/m/K
366.52 K, 180 kPa | 0.01892 W/m/K
366.8 K, 180 kPa | 0.01893 W/m/K
372.42 K, 680 kPa | 0.01975 W/m/K
372.43 K, 170 kPa | 0.01968 W/m/K
372.43 K, 680 kPa | 0.01965 W/m/K
374.18 K, 4090 kPa | 0.0729 W/m/K
374.19 K, 4100 kPa | 0.0708 W/m/K
374.21 K, 4120 kPa | 0.068 W/m/K
374.22 K, 4142 kPa | 0.0659 W/m/K
374.22 K, 4149 kPa | 0.0654 W/m/K
374.23 K, 4187 kPa | 0.0642 W/m/K
374.28 K, 4085 kPa | 0.141 W/m/K
374.31 K, 4090 kPa | 0.1233 W/m/K
374.32 K, 4093 kPa | 0.1139 W/m/K
374.34 K, 4097 kPa | 0.1057 W/m/K
374.36 K, 4100 kPa | 0.0993 W/m/K
374.37 K, 4073 kPa | 0.1974 W/m/K
374.37 K, 4074 kPa | 0.1974 W/m/K
374.37 K, 4245 kPa | 0.0643 W/m/K
374.37 K, 4270 kPa | 0.0643 W/m/K
374.37 K, 4358 kPa | 0.0641 W/m/K
374.38 K, 4078 kPa | 0.1828 W/m/K
374.38 K, 4083 kPa | 0.1742 W/m/K
374.38 K, 4105 kPa | 0.0914 W/m/K
374.39 K, 4070 kPa | 0.1644 W/m/K
374.4 K, 4110 kPa | 0.0851 W/m/K
374.47 K, 4071 kPa | 0.1096 W/m/K
374.5 K, 4533 kPa | 0.0637 W/m/K
374.51 K, 4621 kPa | 0.0635 W/m/K
374.52 K, 4710 kPa | 0.0617 W/m/K
374.52 K, 4759 kPa | 0.061 W/m/K
374.54 K, 4072 kPa | 0.0831 W/m/K
374.57 K, 4073 kPa | 0.0764 W/m/K
374.61 K, 4068 kPa | 0.0674 W/m/K
374.66 K, 4063 kPa | 0.0593 W/m/K
374.72 K, 4049 kPa | 0.0529 W/m/K
374.76 K, 3717 kPa | 0.0352 W/m/K
374.89 K, 4035 kPa | 0.0494 W/m/K
374.92 K, 3675 kPa | 0.0342 W/m/K
374.96 K, 4117 kPa | 0.1232 W/m/K
374.96 K, 4119 kPa | 0.1244 W/m/K
374.96 K, 4126 kPa | 0.1244 W/m/K
374.97 K, 4112 kPa | 0.1176 W/m/K
374.97 K, 4132 kPa | 0.1198 W/m/K
374.99 K, 4107 kPa | 0.1106 W/m/K
374.99 K, 10033 kPa | 0.064 W/m/K
375 K, 4149 kPa | 0.101 W/m/K
375.01 K, 8053 kPa | 0.0615 W/m/K
375.03 K, 4099 kPa | 0.091 W/m/K
375.03 K, 4155 kPa | 0.091 W/m/K
375.03 K, 6045 kPa | 0.0576 W/m/K
375.04 K, 888 kPa | 0.0235 W/m/K
375.04 K, 4160 kPa | 0.0861 W/m/K
375.06 K, 4168 kPa | 0.0796 W/m/K
375.07 K, 4097 kPa | 0.0773 W/m/K
375.1 K, 3544 kPa | 0.0321 W/m/K
375.1 K, 3981 kPa | 0.0428 W/m/K
375.1 K, 4185 kPa | 0.0704 W/m/K
375.11 K, 4099 kPa | 0.0671 W/m/K
375.13 K, 4199 kPa | 0.0643 W/m/K
375.14 K, 3928 kPa | 0.0409 W/m/K
375.14 K, 4132 kPa | 0.1072 W/m/K
375.14 K, 4134 kPa | 0.108 W/m/K
375.14 K, 4136 kPa | 0.108 W/m/K
375.14 K, 4138 kPa | 0.108 W/m/K
375.14 K, 4140 kPa | 0.108 W/m/K
375.14 K, 4142 kPa | 0.1072 W/m/K
375.14 K, 4144 kPa | 0.1063 W/m/K
375.14 K, 4216 kPa | 0.0612 W/m/K
375.15 K, 4130 kPa | 0.1055 W/m/K
375.15 K, 4146 kPa | 0.1047 W/m/K
375.15 K, 4148 kPa | 0.1024 W/m/K
375.16 K, 4150 kPa | 0.1009 W/m/K
375.16 K, 4153 kPa | 0.0988 W/m/K
375.16 K, 4244 kPa | 0.0586 W/m/K
375.17 K, 4157 kPa | 0.0941 W/m/K
375.17 K, 4289 kPa | 0.0565 W/m/K
375.18 K, 4030 kPa | 0.0479 W/m/K
375.18 K, 4160 kPa | 0.0916 W/m/K
375.18 K, 4340 kPa | 0.055 W/m/K
375.18 K, 4942 kPa | 0.0559 W/m/K
375.18 K, 5054 kPa | 0.0557 W/m/K
375.18 K, 5057 kPa | 0.055 W/m/K
375.19 K, 4163 kPa | 0.0881 W/m/K
375.19 K, 4379 kPa | 0.0546 W/m/K
375.19 K, 4458 kPa | 0.0541 W/m/K
375.19 K, 4551 kPa | 0.0545 W/m/K
375.19 K, 4557 kPa | 0.0538 W/m/K
375.2 K, 4166 kPa | 0.0849 W/m/K
375.2 K, 4456 kPa | 0.053 W/m/K
375.21 K, 4170 kPa | 0.0823 W/m/K
375.21 K, 4171 kPa | 0.0814 W/m/K
375.23 K, 4178 kPa | 0.0777 W/m/K
375.23 K, 4181 kPa | 0.076 W/m/K
375.24 K, 4120 kPa | 0.1016 W/m/K
375.24 K, 4189 kPa | 0.0731 W/m/K
375.28 K, 4145 kPa | 0.0986 W/m/K
375.28 K, 4150 kPa | 0.1002 W/m/K
375.28 K, 4156 kPa | 0.1002 W/m/K
375.28 K, 4162 kPa | 0.0994 W/m/K
375.28 K, 4167 kPa | 0.0984 W/m/K
375.28 K, 4208 kPa | 0.0667 W/m/K
375.29 K, 4139 kPa | 0.0943 W/m/K
375.29 K, 4174 kPa | 0.0955 W/m/K
375.3 K, 4089 kPa | 0.0573 W/m/K
375.3 K, 4181 kPa | 0.0927 W/m/K
375.3 K, 4229 kPa | 0.0627 W/m/K
375.31 K, 4189 kPa | 0.0889 W/m/K
375.31 K, 4254 kPa | 0.0613 W/m/K
375.31 K, 4265 kPa | 0.061 W/m/K
375.31 K, 4294 kPa | 0.0605 W/m/K
375.31 K, 4307 kPa | 0.0603 W/m/K
375.31 K, 4341 kPa | 0.06 W/m/K
375.32 K, 4130 kPa | 0.0916 W/m/K
375.32 K, 4134 kPa | 0.0856 W/m/K
375.32 K, 4197 kPa | 0.0848 W/m/K
375.32 K, 4389 kPa | 0.0592 W/m/K
375.32 K, 4450 kPa | 0.0585 W/m/K
375.32 K, 4490 kPa | 0.0588 W/m/K
375.33 K, 4129 kPa | 0.087 W/m/K
375.33 K, 4204 kPa | 0.0816 W/m/K
375.34 K, 3828 kPa | 0.0367 W/m/K
375.34 K, 4085 kPa | 0.0517 W/m/K
375.34 K, 4126 kPa | 0.0773 W/m/K
375.36 K, 4121 kPa | 0.0721 W/m/K
375.36 K, 4216 kPa | 0.0746 W/m/K
375.37 K, 4128 kPa | 0.0763 W/m/K
375.38 K, 4225 kPa | 0.0686 W/m/K
375.39 K, 4235 kPa | 0.0668 W/m/K
375.4 K, 4126 kPa | 0.0683 W/m/K
375.4 K, 4244 kPa | 0.0645 W/m/K
375.42 K, 3349 kPa | 0.0298 W/m/K
375.42 K, 4115 kPa | 0.0611 W/m/K
375.42 K, 4265 kPa | 0.0608 W/m/K
375.43 K, 4051 kPa | 0.0425 W/m/K
375.43 K, 4280 kPa | 0.0596 W/m/K
375.43 K, 4292 kPa | 0.0588 W/m/K
375.45 K, 4349 kPa | 0.0567 W/m/K
375.46 K, 4029 kPa | 0.0397 W/m/K
375.46 K, 4107 kPa | 0.0545 W/m/K
375.46 K, 4118 kPa | 0.0591 W/m/K
375.46 K, 4473 kPa | 0.0555 W/m/K
375.46 K, 4527 kPa | 0.055 W/m/K
375.46 K, 4625 kPa | 0.055 W/m/K
375.46 K, 4681 kPa | 0.0552 W/m/K
375.46 K, 4735 kPa | 0.0582 W/m/K
375.48 K, 4848 kPa | 0.0566 W/m/K
375.49 K, 4097 kPa | 0.0508 W/m/K
375.51 K, 4107 kPa | 0.0521 W/m/K
375.52 K, 4086 kPa | 0.0475 W/m/K
375.53 K, 4097 kPa | 0.0492 W/m/K
375.56 K, 4055 kPa | 0.0434 W/m/K
375.58 K, 4040 kPa | 0.0421 W/m/K
375.59 K, 3196 kPa | 0.0287 W/m/K
375.6 K, 4065 kPa | 0.0432 W/m/K
375.61 K, 3999 kPa | 0.0395 W/m/K
375.61 K, 4059 kPa | 0.0425 W/m/K
375.63 K, 3965 kPa | 0.0378 W/m/K
375.65 K, 4023 kPa | 0.0393 W/m/K
375.66 K, 3917 kPa | 0.0361 W/m/K
375.69 K, 3874 kPa | 0.0343 W/m/K
375.72 K, 4178 kPa | 0.0857 W/m/K
375.72 K, 4187 kPa | 0.0881 W/m/K
375.73 K, 3772 kPa | 0.0319 W/m/K
375.73 K, 4179 kPa | 0.083 W/m/K
375.73 K, 4199 kPa | 0.0841 W/m/K
375.74 K, 4210 kPa | 0.0799 W/m/K
375.76 K, 3000 kPa | 0.0274 W/m/K
375.76 K, 3658 kPa | 0.0306 W/m/K
375.76 K, 4161 kPa | 0.0752 W/m/K

From the NIST ThermoML archive (doi:10.1021/je900210h)
